Laboratory results reported in patent US10413610B2, “Liquid formulation” (Luoda Pharma Pty Ltd, priority 2012, dated 2019).

Columns and labels:
[1] = design: species or system dogs; conditions: dog, in vivo
Source text: The results for both IVPs 3 and 4 are consistent with this value.

[2] = cited from earlier work

| published AUC for benazeprilat scaled to a dose of 0.25 mg/kg [1] [ng/h/mL] | Structure (SMILES) | effect of addition of HPβCD on aqueous solubility of pimobendan ([2]; pH between 3 and 5) | solubility at pH 7 ([2]; water, pH 7) [mg per 100 mL] | volume of water in which 1 g of pimobendan dissolves ([2]; water) |
| --- | --- | --- | --- | --- |
| 114.9 | CCOC(=O)[C@H](CCc1ccccc1)N[C@H]1CCc2ccccc2N(CC(=O)O)C1=O [benazepril, Benazepril] | – | – | – |
| – | COc1ccc(-c2nc3ccc(C4=NNC(=O)CC4C)cc3[nH]2)cc1 (racemic) [pimobendan, (RS)-6-[2-(4-methoxyphenyl)-1H-benzimidazol-5-yl]-5-methyl-4,5-dihydropyridazin-3(2H)-one] | does not effectively increase the aqueous solubility | 0.1 | 10,000 mL |
